ChEMBL document CHEMBL5465560, “Selectivity Literature for EUbOPEN Chemogenomic Library” (2024)

What was measured:
[1] = target: Phosphatidylinositol 4,5-bisphosphate 3-kinase catalytic subunit beta isoform (Homo sapiens) (UniProt P42338); assay: Selectivity interaction (Kinase panel (KiNativ target engagement assay in Jurkat cells)) EUB0001635a PIK3CB; format: cell-based; conditions: Selectivity number of off-targets 0.0, Selectivity number of targets 233.0, Source Knowledge https://www.sciencedirect.com/science/article/pii/S2451945619300674?via%3Dihub, at 1 µM
Chain of Phosphatidylinositol 4,5-bisphosphate 3-kinase catalytic subunit beta isoform (Homo sapiens) (P42338 whole entry, looked up, canonical isoform): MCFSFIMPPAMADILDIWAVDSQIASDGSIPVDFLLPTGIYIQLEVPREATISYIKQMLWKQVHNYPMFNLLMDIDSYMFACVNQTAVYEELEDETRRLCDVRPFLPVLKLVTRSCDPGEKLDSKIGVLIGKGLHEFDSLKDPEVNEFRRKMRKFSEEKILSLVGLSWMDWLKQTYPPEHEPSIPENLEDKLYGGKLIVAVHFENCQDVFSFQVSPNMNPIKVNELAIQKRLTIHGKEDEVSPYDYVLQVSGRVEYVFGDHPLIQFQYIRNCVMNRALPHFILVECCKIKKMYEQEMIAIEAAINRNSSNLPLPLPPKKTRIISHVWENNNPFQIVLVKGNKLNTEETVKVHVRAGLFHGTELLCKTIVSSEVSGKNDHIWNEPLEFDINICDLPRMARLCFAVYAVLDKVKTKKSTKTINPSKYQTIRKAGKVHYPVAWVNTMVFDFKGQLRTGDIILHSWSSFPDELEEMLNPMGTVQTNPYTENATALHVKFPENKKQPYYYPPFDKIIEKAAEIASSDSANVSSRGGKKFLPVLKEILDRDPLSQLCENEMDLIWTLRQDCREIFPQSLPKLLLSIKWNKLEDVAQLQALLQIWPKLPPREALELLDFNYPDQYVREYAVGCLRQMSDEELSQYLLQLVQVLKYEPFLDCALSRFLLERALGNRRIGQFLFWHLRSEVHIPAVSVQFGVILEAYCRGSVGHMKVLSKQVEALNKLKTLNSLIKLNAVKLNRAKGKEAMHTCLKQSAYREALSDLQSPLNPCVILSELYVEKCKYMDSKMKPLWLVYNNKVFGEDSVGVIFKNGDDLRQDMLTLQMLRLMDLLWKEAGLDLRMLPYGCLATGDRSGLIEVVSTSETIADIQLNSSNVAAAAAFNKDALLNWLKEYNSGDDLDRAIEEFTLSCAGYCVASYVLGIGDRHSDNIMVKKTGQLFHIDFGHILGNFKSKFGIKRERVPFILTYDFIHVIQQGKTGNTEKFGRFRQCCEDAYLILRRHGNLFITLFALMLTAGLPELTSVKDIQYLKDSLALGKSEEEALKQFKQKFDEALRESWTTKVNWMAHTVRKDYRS

[2] = target: Serine/threonine-protein kinase PAK 3 (Homo sapiens) (UniProt O75914); assay: Selectivity interaction (KinomeScan (DiscoverX)) EUB0000607a PAK3; conditions: at 10 µM
Chain of Serine/threonine-protein kinase PAK 3 (Homo sapiens) (O75914 whole entry, looked up, canonical isoform): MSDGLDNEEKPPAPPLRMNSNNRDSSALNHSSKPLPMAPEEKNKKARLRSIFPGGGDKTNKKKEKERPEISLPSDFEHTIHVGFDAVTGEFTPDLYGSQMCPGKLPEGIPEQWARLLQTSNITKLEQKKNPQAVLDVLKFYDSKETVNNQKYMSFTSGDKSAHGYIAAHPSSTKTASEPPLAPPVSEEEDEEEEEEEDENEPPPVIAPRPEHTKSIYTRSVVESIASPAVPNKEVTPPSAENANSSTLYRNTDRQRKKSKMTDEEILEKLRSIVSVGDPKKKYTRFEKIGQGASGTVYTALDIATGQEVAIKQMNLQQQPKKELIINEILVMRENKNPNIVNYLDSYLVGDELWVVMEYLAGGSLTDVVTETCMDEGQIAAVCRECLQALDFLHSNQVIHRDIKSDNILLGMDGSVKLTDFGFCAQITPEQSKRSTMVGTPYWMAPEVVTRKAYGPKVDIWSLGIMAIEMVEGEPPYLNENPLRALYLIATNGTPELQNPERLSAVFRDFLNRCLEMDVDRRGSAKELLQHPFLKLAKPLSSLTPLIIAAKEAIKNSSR

[3] = target: T1, Phosphatidylinositol 4,5-bisphosphate 3-kinase catalytic subunit delta isoform (Homo sapiens) (UniProt O00329); assay: Selectivity interaction (ActivX KiNativ screen (kinase selectivity in THP-1 cell lysates)) EUB0000639a PIK3CD; format: subcellular; conditions: lysate, at 0.01 µM
T1 sequence (whole entry): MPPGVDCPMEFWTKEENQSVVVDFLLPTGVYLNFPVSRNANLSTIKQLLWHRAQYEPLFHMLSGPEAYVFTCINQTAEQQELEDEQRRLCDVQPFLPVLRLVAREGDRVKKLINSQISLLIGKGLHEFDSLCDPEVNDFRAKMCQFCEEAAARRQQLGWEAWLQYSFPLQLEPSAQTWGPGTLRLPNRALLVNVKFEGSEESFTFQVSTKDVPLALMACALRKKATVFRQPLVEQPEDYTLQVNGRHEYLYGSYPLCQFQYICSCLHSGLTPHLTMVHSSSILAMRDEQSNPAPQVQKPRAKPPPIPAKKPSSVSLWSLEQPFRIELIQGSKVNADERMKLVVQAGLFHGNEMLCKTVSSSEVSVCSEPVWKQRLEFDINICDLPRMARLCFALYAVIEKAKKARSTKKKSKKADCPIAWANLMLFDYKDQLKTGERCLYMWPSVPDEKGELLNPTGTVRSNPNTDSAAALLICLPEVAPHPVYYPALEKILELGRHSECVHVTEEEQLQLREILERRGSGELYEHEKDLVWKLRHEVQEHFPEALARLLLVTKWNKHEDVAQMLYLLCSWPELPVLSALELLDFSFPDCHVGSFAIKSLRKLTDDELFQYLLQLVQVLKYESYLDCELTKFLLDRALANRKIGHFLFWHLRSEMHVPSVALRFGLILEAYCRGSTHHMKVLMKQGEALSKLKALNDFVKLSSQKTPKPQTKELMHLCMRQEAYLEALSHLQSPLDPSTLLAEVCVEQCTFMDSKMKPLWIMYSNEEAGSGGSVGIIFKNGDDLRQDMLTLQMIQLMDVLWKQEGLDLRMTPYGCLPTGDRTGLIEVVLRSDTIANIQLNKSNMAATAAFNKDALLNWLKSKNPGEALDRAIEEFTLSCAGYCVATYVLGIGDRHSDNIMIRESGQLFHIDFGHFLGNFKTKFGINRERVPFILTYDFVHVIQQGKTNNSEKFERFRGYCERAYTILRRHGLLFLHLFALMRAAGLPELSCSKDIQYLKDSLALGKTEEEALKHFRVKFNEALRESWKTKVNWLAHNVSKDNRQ

[4] = target: T2, Dual specificity protein kinase TTK (Homo sapiens) (UniProt P33981); assay: Selectivity interaction (KinomeScan (DiscoverX)) EUB0000092b TTK; conditions: at 10 µM
T2 sequence (whole entry): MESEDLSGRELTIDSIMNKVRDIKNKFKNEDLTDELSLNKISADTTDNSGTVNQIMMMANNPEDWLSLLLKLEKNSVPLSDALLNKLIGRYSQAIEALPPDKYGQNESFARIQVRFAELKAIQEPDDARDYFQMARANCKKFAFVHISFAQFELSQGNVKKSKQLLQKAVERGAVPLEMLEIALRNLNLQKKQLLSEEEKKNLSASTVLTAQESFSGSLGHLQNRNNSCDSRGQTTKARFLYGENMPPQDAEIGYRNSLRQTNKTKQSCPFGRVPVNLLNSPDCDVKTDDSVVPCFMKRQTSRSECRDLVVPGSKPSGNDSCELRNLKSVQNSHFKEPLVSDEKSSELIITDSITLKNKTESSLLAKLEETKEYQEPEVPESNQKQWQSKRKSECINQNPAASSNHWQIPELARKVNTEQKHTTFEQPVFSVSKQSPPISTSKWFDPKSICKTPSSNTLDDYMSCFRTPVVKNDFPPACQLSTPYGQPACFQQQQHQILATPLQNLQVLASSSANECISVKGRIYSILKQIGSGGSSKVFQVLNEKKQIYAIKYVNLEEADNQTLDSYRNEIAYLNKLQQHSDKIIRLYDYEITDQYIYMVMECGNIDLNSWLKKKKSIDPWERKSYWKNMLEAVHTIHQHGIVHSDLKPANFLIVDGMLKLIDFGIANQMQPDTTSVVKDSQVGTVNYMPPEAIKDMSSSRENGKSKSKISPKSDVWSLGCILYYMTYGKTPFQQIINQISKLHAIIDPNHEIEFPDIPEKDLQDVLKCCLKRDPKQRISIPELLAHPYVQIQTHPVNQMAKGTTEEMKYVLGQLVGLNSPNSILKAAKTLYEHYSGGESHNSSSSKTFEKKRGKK

`C=CC(=O)Nc1ccc(C(=O)Nc2[nH]nc3c2CN(C(=O)N[C@H](CN(C)C)c2ccccc2)C3(C)C)cc1` showed a % of engagement [1] of -21.2%.
Compound `CNC(=O)Nc1ccc(-c2nc(N3CC4CCC(C3)O4)c3cnn(C4CCC5(CC4)OCCO5)c3n2)cc1` has a % of control [2] of 99%.
Work on `CC[C@@H]1[C@H](F)C(=O)N[C@@H]1COc1nccc2cc(C(N)=O)c(OC)cc12` [ZIMLOVISERTIB] yielded a % of inhibition [3] of -9.6%.
Compound `CCC(=O)N1CCN(c2ccc(-n3c(=O)ccc4cnc5ccc(-c6cnc7ccccc7c6)cc5c43)cc2C(F)(F)F)CC1` has a % of control [4] of 9.6%.
